Counter-ions that a name gives are not always drawn.
Key:
[1] = test system: IL-17 production of mouse spleen cells stimulated by rm-IL-23; assay: Production of IL-17 induced when mouse spleen cells were stimulated by recombinant mouse interleukin-23 (rm-IL-23); format: cell-based; details: Mus musculus, 72 h, inhibition of IL-17 production, DBA/1J mouse spleen cells, rm-IL-23 1 nmol/L, ELISA
Experimental: Effect on Production of IL-17 Induced when Mouse Spleen Cells were Stimulated by Recombinant Mouse Interleukin-23 (rm-IL-23)
An RPMI1640 (Sigma-Aldrich) was used as a medium, to which penicillin G potassium (50 units/mL; Gibco), streptomycin (50 μg/mL; Gibco) and 2-mercaptoethanol (50 μmol/l; Sigma-Aldrich) were added, and then 10% of fetal calf serum (FCS; Cell Culture Technology) inactivated at 56° C. for 30 minutes was added and used in the Test. The test compound was dissolved in dimethylsulfoxide and diluted with 10% FCS-containing RPMI1640 medium to a desired concentration and used in the test. The spleens were aseptically taken out from 6-7 week-old male DBA/1J mice (Charles River Japan, Inc.) and a single cell suspension of spleen cells was prepared and hemolyzed by hypotonic treatment with a mixture of 0.83% aqueous solution of ammonium chloride and Tris-HCl buffer of pH 7.65 (9:1). A cell suspension prepared by 10% FCS-containing RPMI1640 medium was added to flat-bottomed 96 well microtestplate at 2×10^5 cells/well. Test compounds and rm-IL-23 (R&D systems) were diluted with a medium to 1 to 1,000 nmol/L, and 1 nmol/L of the final concentration respectively, which were added and cultured at 37° C., 5% carbon dioxide and 95% air for 72 hours. After completion of the culture, culture supernatant was sampled and an amount of IL-17 production was determined by ELISA method. After sampling the supernatant, WST-8 (Seikagaku Corporation) was added at 10 μl/well and cultured at 37° C., 5% carbon dioxide and 95% air for 4 hours. Then, absorbance (O.D.: Optical Density) at 450 nm was measured by a microplate reader and the value was adopted as an index of cell survivability. An inhibition rate (%) was calculated according to the following formula on the basis of an average of an amount of IL-17 production and a O.D. values of the well containing a test compound of each concentration.
Based on the dose-response curve obtained by plotting the inhibition rate in the longitudinal axis and concentration in the horizontal axis, the concentration of the compound which inhibits the level to 50% of the value of the control group (IC50; nmol/L) was determined by linear regression analysis. The results was shown in the next Table 1

hERG = hERG (Homo sapiens, UniProt Q12809); assay: Effects on hERG current (whole-cell clamping); details: human, HEK 293 cells that express hERG, pH 7.4, hERG inhibition rate (%) (1 μM), 1 μM; tail peak current; hERG-expressed HEK 293 cells
Sequence of hERG (Q12809 whole entry): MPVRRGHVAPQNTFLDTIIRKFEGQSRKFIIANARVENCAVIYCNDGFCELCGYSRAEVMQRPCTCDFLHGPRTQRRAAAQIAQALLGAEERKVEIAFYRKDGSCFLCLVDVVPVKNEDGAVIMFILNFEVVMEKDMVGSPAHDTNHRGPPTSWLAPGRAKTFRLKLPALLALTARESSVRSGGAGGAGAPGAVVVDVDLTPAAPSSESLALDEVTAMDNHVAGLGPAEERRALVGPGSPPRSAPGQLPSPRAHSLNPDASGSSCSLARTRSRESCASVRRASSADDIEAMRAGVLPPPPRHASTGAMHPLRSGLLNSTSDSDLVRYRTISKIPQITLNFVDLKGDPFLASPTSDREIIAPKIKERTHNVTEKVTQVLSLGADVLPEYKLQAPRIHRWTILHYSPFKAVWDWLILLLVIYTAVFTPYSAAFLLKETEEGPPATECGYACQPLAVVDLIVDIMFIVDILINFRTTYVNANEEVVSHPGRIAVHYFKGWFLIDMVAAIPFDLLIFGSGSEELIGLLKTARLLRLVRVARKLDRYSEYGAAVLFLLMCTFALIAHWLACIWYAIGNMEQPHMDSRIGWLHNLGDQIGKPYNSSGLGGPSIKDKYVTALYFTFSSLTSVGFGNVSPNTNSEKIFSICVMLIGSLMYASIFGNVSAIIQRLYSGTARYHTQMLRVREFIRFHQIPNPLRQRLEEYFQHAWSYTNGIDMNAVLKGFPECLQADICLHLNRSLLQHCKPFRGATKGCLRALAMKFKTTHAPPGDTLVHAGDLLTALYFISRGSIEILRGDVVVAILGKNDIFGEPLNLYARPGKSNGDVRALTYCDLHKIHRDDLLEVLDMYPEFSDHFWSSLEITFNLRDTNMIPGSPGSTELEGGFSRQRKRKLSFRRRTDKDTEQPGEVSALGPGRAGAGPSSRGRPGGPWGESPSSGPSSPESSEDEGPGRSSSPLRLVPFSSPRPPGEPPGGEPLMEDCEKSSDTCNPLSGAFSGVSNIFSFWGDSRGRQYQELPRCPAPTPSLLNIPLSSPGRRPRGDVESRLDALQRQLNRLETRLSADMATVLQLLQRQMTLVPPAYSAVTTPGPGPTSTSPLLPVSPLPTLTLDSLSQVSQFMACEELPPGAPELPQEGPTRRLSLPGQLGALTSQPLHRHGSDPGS

| SMILES | IC50 [1] [nM] | inhibition at 1 µM (hERG) [%] |
| --- | --- | --- |
| Cc1c(C(=O)Nc2ccc([C@]3(C#N)CC[C@@H](N4CCOCC4)CC3)nc2)cnn1-c1ncc(Cl)cc1Cl [Example D7, N-{6-[r-1-Cyano-c-4-(morpholin-4-yl)cyclohexyl]pyridin-3-yl}-1-(3,5-dichloropyridin-2-yl)-5-methyl-1H-pyrazole-4-carboxamide hydrochloric acid salt] | 208 | 24.7 |
| Cc1c(C(=O)Nc2ccc([C@]3(C#N)CC[C@@H](N4CCC(O)C4)CC3)nc2)cnn1-c1ccc(C(F)(F)F)cn1 (some centres unmarked) [Example D13, N-{6-[r-1-Cyano-c-4-(3-hydroxypyrrolidin-1-yl)cyclohexyl]pyridin-3-yl}-5-methyl-1-[5-(trifluoromethyl)pyridin-2-yl]-1H-pyrazole-4-carboxamide] | 154 | 22 |
| Cc1c(C(=O)Nc2ccc([C@]3(C#N)CC[C@@H](N4CCOCC4)CC3)nc2)cnn1-c1ncc(C(F)(F)F)cc1F [Example D14, N-{6-[r-1-Cyano-c-4-(morpholin-4-yl)cyclohexyl]pyridin-3-yl}-1-[3-fluoro-5-(trifluoromethyl)pyridin-2-yl]-5-methyl-1H-pyrazole-4-carboxamide] | 162 | 6.4 |
| CO[C@H]1CC[C@](C#N)(c2ccc(NC(=O)c3cnn(-c4ccc(C)cc4)c3C)cn2)CC1 [Example D18, N-{6-[r-1-Cyano-c-4-methoxycyclohexyl]pyridin-3-yl}-5-methyl-1-(4-methylphenyl)-1H-pyrazole-4-carboxamide] | 251 | 7.2 |
| Cc1cc(NC(=O)c2cnn(-c3ncc(C(F)(F)F)cc3F)c2C)cnc1C1=CCC(O)CC1 (centres unmarked) [Example D25, 1-[3-Fluoro-5-(trifluoromethyl)pyridin-2-yl]-5-methyl-N-[5-methyl-6-(4-hydroxycyclohex-1-en-1-yl)pyridin-3-yl]-1H-pyrazole-4-carboxamide] | 148 | 4.2 |
| Cc1c(C(=O)Nc2ccc([C@]3(C#N)CC[C@@H](N4CCOCC4)CC3)nc2)cnn1-c1ccc(C(C)C)cn1 [Example D26, N-{6-[r-1-Cyano-c-4-(morpholin-4-yl)cyclohexyl]pyridin-3-yl}-1-(5-isopropylpyridin-2-yl)-5-methyl-1H-pyrazole-4-carboxamide mesylate] | 125 | 26.4 |
| Cc1c(C(=O)Nc2ccc([C@]3(O)CC[C@@H](N4CCOCC4)CC3)nc2)cnn1-c1ccc(C(F)(F)F)cc1 [Example D53] | 169 | 25.1 |
| Cc1c(C(=O)Nc2ccc([C@H]3CC[C@H](N4CCOCC4)CC3)nc2)cnn1-c1ccc(C(F)F)cn1 [Example D63] | 207 | 40.4 |
| Cc1c(C(=O)Nc2ccc([C@H]3CC[C@H](N4CCOCC4)CC3)nc2)cnn1-c1ccc(C2CC2)cn1 [Example D64] | 160 | 27.9 |
| Cc1c(C(=O)Nc2ccc([C@H]3CC[C@H](N4CCOCC4)CC3)nc2)cnn1-c1ncc(C2CC2)cc1F [Example D65] | 139 | 5.5 |
| Cc1c(C(=O)Nc2ccc([C@]3(C#N)CC[C@@H](N4CCOCC4)CC3)nc2)cnn1-c1ccc(F)cc1 [Example D89] | 183 | 44.4 |
| Cc1c(C(=O)Nc2ccc([C@]3(C#N)CC[C@@H](N4CCOCC4)CC3)nc2)cnn1-c1ccc(C(C)(C)C)cn1 [Example D104] | 212 | 13.8 |
| COc1cc(NC(=O)c2cnn(-c3ccc(C(F)(F)F)cn3)c2C)cnc1C1=CCC(N(C)C(=O)C(C)(C)C)CC1 (centres unmarked) [Example K69, N-(6-{4-[N-(2,2-Dimethylpropion-1-yl)-N-methylamino]cyclohex-1-en-1-yl}-5-methoxypyridin-3-yl)-5-methyl-1-[5-(trifluoromethyl)pyridin-2-yl]-1H-pyrazole-4-carboxamide] | – | 1.3 |

Further lines, with some results ahead:

| IC50 [1] [nM] | SMILES | inhibition at 1 µM (hERG) [%] |
| --- | --- | --- |
| 78.9 | Cc1c(C(=O)Nc2ccc([C@]3(C#N)CC[C@@H](N4CCOCC4)CC3)nc2)cnn1-c1ccc(C(F)(F)F)cn1 [Example D1, N-{6-[r-1-Cyano-c-4-(morpholin-4-yl)cyclohexyl]pyridin-3-yl}-5-methyl-1-[5-(trifluoromethyl)pyridin-2-yl]-1H-pyrazole-4-carboxamide hydrochloride] | 22.6 |
| 119 | Cc1c(C(=O)Nc2ccc(C3=CCC(N4CCOCC4)CC3)nc2)cnn1-c1ccc(C2CC2)cn1 (centres unmarked) [Example D5, 1-(5-Cyclopropylpyridin-2-yl)-5-methyl-N-{6-[4-(morpholin-4-yl)cyclohex-1-en-1-yl]pyridin-3-yl}-1H-pyrazole-4-carboxamide mesylate] | 15.1 |
| 63.3 | Cc1c(C(=O)Nc2ccc([C@H]3CC[C@H](N4CCOCC4)CC3)nc2)cnn1-c1ccc(C(F)(F)F)cn1 [Example D6, trans-5-Methyl-N-{6-[4-(morpholin-4-yl)cyclohexyl]pyridin-3-yl}-1-[5-(trifluoromethyl)-pyridin-2-yl]-1H-pyrazole-4-carboxamide mesylate] | 24.5 |
| 92 | Cc1cc(NC(=O)c2cnn(-c3ncc(Cl)cc3F)c2C)cnc1C1=CCC(N2CCOCC2)CC1 (centres unmarked) [Example D19, 1-[5-Chloro-3-fluoropyridin-2-yl]-5-methyl-N-{5-methyl-6-[4-(morpholin-4-yl)cyclohex-1-en-1-yl]pyridin-3-yl}-1H-pyrazole-4-carboxamide] | 35.1 |
| 39.5 | Cc1cc(NC(=O)c2cnn(-c3ccc(C(F)(F)F)cn3)c2C)cnc1C1=CC[C@H](N2CCOCC2)CC1 [Example D21, (R)-5-Methyl-N-{5-methyl-6-[4-(morpholin-4-yl)cyclohex-1-en-1-yl]pyridin-3-yl}-1-[5-(trifluoromethyl)pyridin-2-yl]-1H-pyrazole-4-carboxamide] | 14.3 |
| 36.2 | Cc1cc(NC(=O)c2cnn(-c3ccc(C(F)(F)F)cn3)c2C)cnc1C1=CC[C@@H](N2CCOCC2)CC1 [Example D22, (S)-5-Methyl-N-{5-methyl-6-[4-(morpholin-4-yl)cyclohex-1-en-1-yl]pyridin-3-yl}-1-[5-(trifluoromethyl)pyridin-2-yl]-1H-pyrazole-4-carboxamide] | 31 |
| 105 | Cc1cc(NC(=O)c2cnn(-c3ccc(C(F)(F)F)cn3)c2C)cnc1C1=CCC(O)CC1 (centres unmarked) [Example D23, N-[6-(4-Hydroxycyclohex-1-en-1-yl)-5-methylpyridin-3-yl]-5-methyl-1-[5-(trifluoromethyl)-pyridin-2-yl]-1H-pyrazole-4-carboxamide] | 20.2 |
| 40.3 | Cc1cc(NC(=O)c2cnn(-c3ncc(C(F)(F)F)cc3F)c2C)cnc1C1=CCC(N2CCOCC2)CC1 (centres unmarked) [Example D24, 1-[3-Fluoro-5-(trifluoromethyl)pyridin-2-yl]-5-methyl-N-{5-methyl-6-[4-(morpholin-4-yl)cyclohex-1-en-1-yl]pyridin-3-yl}-1H-pyrazole-4-carboxamide mesylate] | 20.9 |
| 86.9 | Cc1c(C(=O)Nc2ccc(C3(C#N)CCC4(CC3)OCCO4)nc2)cnn1-c1ccc(Br)cn1 [Example D29] | 27.7 |
| 32.8 | Cc1c(C(=O)Nc2ccc(C3(C#N)CCC4(CC3)OCCO4)nc2)cnn1-c1ccc(C(F)(F)F)cn1 [Example D41] | 26.4 |
| 62.5 | Cc1c(C(=O)Nc2ccc(C3=CCC(N4CCOCC4)CC3)nc2)cnn1-c1ccc(C(F)(F)F)cc1 (centres unmarked) [Example D71] | 16.5 |
| 52.6 | Cc1c(C(=O)Nc2ccc([C@]3(C#N)CC[C@@H](N4CCOCC4)CC3)nc2)cnn1-c1ccc(C(C)(C)C)cc1 [Example D88] | 43 |
| 55.1 | Cc1ccc(-n2ccc(C(=O)Nc3ccc(C4(C#N)CCC5(CC4)OCCO5)nc3)c2)cc1C [Example D153] | 47.6 |
| 44 | Cc1c(C(=O)Nc2ccc(C3CCC4(CC3)OCCO4)nc2)cnn1-c1ccc(C(C)(C)C)cc1 [Example D165] | 8.9 |
| 49.8 | Cc1cc(NC(=O)c2cnn(-c3ncc(C(F)(F)F)cc3Cl)c2C)cnc1C1=CCC(N2CCOCC2)CC1 (centres unmarked) [Example D175] | 31.7 |
| 66 | Cc1cc(NC(=O)c2cnn(-c3ncc(C4CC4)cc3F)c2C)cnc1C1=CCC(N2CCOCC2)CC1 (centres unmarked) [Example D177] | 13 |
| 86.3 | Cc1cc(NC(=O)c2cnn(-c3ncc(C(F)(F)F)cc3C)c2C)cnc1C1=CCC(N2CCOCC2)CC1 (centres unmarked) [Example D188] | 40 |
